`CCc1nc2c(NC(C)=O)nc3ccccc3c2n1CCCCNS(C)(=O)=O` [Example 1, N-(2-Ethyl-1-{4-[(methylsulfonyl)amino]butyl}-1H-imidazo[4,5-c]quinolin-4-yl)acetamide] gave a melting point of 90 to 91 °C.

Compound `CCc1nc2c(NC(=O)c3ccccc3)nc3ccccc3c2n1CCCCNS(C)(=O)=O` [Example 2, N-(2-Ethyl-1-{4-[(methylsulfonyl)amino]butyl}-1H-imidazo[4,5-c]quinolin-4-yl)benzamide] has a melting point of 249 to 250 °C.

Compound `CCOC(=O)Nc1nc2ccccc2c2c1nc(CC)n2CCCCNS(C)(=O)=O` [Example 3, Ethyl 2-Ethyl-1-{4-[(methylsulfonyl)amino]butyl}-1H-imidazo[4,5-c]quinolin-4-ylcarbamate] has a melting point of 185 to 187 °C.

`CCc1nc2c(NC(=O)C(C)C)nc3ccccc3c2n1CCCCNS(C)(=O)=O` [Example 4, N-(2-Ethyl-1-{4-[(methylsulfonyl)amino]butyl}-1H-imidazo[4,5-c]quinolin-4-yl)-2-methylpropanamide] showed a melting point of 122 to 124 °C.

Work on `CCc1nc2c(NC(=O)C(C)(C)C)nc3ccccc3c2n1CCCCNS(C)(=O)=O` [Example 5, N-(2-Ethyl-1-{4-[(methylsulfonyl)amino]butyl}-1H-imidazo[4,5-c]quinolin-4-yl)-2,2-dimethylpropanamide] yielded a melting point of 220 to 221 °C.

`CCCOC(=O)Nc1nc2ccccc2c2c1nc(CC)n2CCCCNS(C)(=O)=O` [Example 6, Propyl 2-Ethyl-1-{4-[(methylsulfonyl)amino]butyl}-1H-imidazo[4,5-c]quinolin-4-ylcarbamate] gave a melting point of 155 to 157 °C.

In the case of `CCCCOC(=O)Nc1nc2ccccc2c2c1nc(CC)n2CCCCNS(C)(=O)=O` [Example 7, Butyl 2-Ethyl-1-{4-[(methylsulfonyl)amino]butyl}-1H-imidazo[4,5-c]quinolin-4-ylcarbamate], the melting point is reported as 164 to 166 °C.

Source: patent publication US8188111B2, “Amide and carbamate derivatives of alkyl substituted N-[4-(4-amino-1H-imidazo[4,5-c]quinolin-1-yl)butyI]methanesulfonamides and methods” (3M Innovative Properties Company, priority 2005, dated 2012)
